One data set deals with SK-BR-3. The data set is described as follows: In vitro cytotoxicity assay (CCK-8) in SK-BR-3. The settings on record: Homo sapiens, toxins (expected metabolites of the ADCs), 120 hours. It is filed as cell-based. As for the experimental part:
(§1) Dispensed 175 μL cell suspension in 96-well plate at 1500 cells per well and incubate for 24 hours in a humidified incubator (37° C., 5% CO2). […] Added 25 μL various concentrations of compound as a […] solution into the cell culture medium (Fetal bovine serum, Invitrogen) in the plate and incubated for 120 hours in the incubator. Thawed CCK-8 on the bench top or in a 37° C. water bath, added 10 μL of CCK-8 to each well of the incubated plate (be careful not introducing air bubbles into the wells since they would interfere with the O. D. reading) and then further incubated for 1-4 hours in the incubator. Measured the absorbance at 450 nm using a SpectraMax i3× Microplate Reader and calculated the cell inhibition rate. The IC50 curves were generated along with the IC50 values by using GraphPad Prism software.

For another data set, the system named is NCI-N87. The data set is described as follows: In vitro cytotoxicity assay (CCK-8) in NCI-N87. It is filed as cell-based. The settings on record: Homo sapiens, toxins (expected metabolites of the ADCs), 120 hours. As for the experimental part: as §1
Another data set deals with MDA-MB-468. Nature of the data set: In vitro cytotoxicity assay (CCK-8) in MDA-MB-468. Format: cell-based. The note with it: Homo sapiens, toxins (expected metabolites of the ADCs), 120 hours. As for the experimental part: as §1
The next data set deals with JIMT-1. Nature of the data set: cells. It is filed as cell-based, human. The note with it: for IC50: Homo sapiens, JIMT-1, toxins (expected metabolites of the ADCs), 120 hours. As for the experimental part:
as §1

The subject of another data set is MCF-7. The data set is described as follows: In vitro cytotoxicity assay (CCK-8) in MCF-7. It is filed as cell-based. The settings on record: Homo sapiens, MCF7; toxins (expected metabolites of the ADCs), 120 hours. As for the experimental part: as §1
For the next data set, the system named is SK-OV-3. The data set is described as follows: In vitro cytotoxicity assay (CCK-8) in SK-OV-3. The settings on record: Homo sapiens, toxins (expected metabolites of the ADCs), 120 hours. Format: cell-based. As for the experimental part:
as §1

A further data set concerns OVCAR-3. The data set is described as follows: In vitro cytotoxicity assay (CCK-8) in OVCAR-3. The settings on record: Homo sapiens, toxins (expected metabolites of the ADCs), 120 hours. Format: cell-based. As for the experimental part: as §1

`CCc1c2c(nc3cc(F)c(C)c(CCCCO)c13)-c1cc3c(c(=O)n1C2)COC(=O)[C@]3(O)CC`: the IC50 in the data set with SK-BR-3, with NCI-N87, in the data set with MDA-MB-468 and in the data set with JIMT-1 was over 30 nM each time.

Turning to `CC[C@@]1(O)C(=O)OCc2c1cc1n(c2=O)Cc2c-1nc1cc(F)c(C)c3c1c2[C@@H](NC(=O)CO)CC3` [DXd, reference compound], the IC50 in the data set on SK-BR-3 is 1.9 nM; with NCI-N87, 3.6 nM.

Consider `CC[C@@]1(O)C(=O)OCc2c1cc1n(c2=O)Cc2cc3c(CCCCO)c(C)c(F)cc3nc2-1` [MB-1, (19S)-19-ethyl-6-fluoro-19-hydroxy-8-(4-hydroxybutyl)-7-methyl-17-oxa-3,13-diazapentacyclo[11.8.0.0^2,11.0^4,9.0^15,20]henicosa-1(21),2,4,6,8,10,15(20)-heptaene-14,18-dione], for which the IC50 was 0.77 nM in the data set on SK-BR-3; 0.37 nM with MCF-7; 1.3 nM with NCI-N87; 1 nM in the data set with SK-OV-3; 0.42 nM in the data set with MDA-MB-468; 0.78 nM in the data set with JIMT-1. Moreover, the IC50 in the data set on OVCAR-3 worked out at 0.1 nM. The “cytotoxic potency relative to DXd” value in the data set on JIMT-1 was “ten folds more potent than DXd”.

The values above are taken from US12521444B2, “Anti-HER2 antibody-drug conjugates and uses thereof” (Fortvita Biologics Limited, priority 2021, dated 2026).
